≈ marks a conversion by molar mass, not a printed value. Calls of active or inactive are those of the source. The rule behind the calls is not given here.
Assays:
[1] = target: RAC-alpha serine/threonine-protein kinase (Homo sapiens) (UniProt P31749); test: Inhibition of recombinant human N-terminal GST/His6-tagged and C-terminal His6-tagged AKT1(V106 to A480) expressed in Sf9 insect cells at 20 nM using phosphatidylserine as substrate incubated for 60 mins in presence of [33P]-ATP by scintillation counting method
[2] = target: BDNF/NT-3 growth factors receptor (Homo sapiens, UniProt Q16620); test: Inhibition of human GST-tagged TRKB (456 to 822) expressed in baculovirus expression system using TK-biotin peptide as substrate incubated for 45 min by TR-FRET assay
[3] = Solubility of test compound; format: physicochemical
[4] = Protein binding in Sprague-Dawley rat plasma; format: ADME, cell-free; details: read-out: PPB (converted)
[5] = test system: Rattus norvegicus; test: Unbound drug level in plasma of CFA induced Sprague-Dawley rat at 0.8 mg/kg, po after 1 hr; format: ADME, organism-based; details: in vivo
[6] = target: Mitogen-activated protein kinase kinase kinase kinase 4 (Homo sapiens) (UniProt O95819); test: Inhibition of recombinant human N-terminal GST/His6-tagged MAP4K4 (A7 to W1320) expressed in Sf9 insect cells at 20 nM using phosphatidylserine as substrate incubated for 60 mins in presence of [33P]-ATP by scintillation counting method
[7] = target: Ribosomal protein S6 kinase alpha-5 (Homo sapiens) (UniProt O75582); test: Inhibition of RPS6KA5 (unknown origin) at 20 nM using phosphatidylserine as substrate incubated for 60 mins in presence of [33P]-ATP by scintillation counting method
[8] = test system: Rattus norvegicus; test: Antinociceptive activity in CFA induced thermal hypersensitivity Sprague-Dawley rat model assessed as increase in paw withdrawal latency at 4 mg/kg, po after 1 hr; format: functional, organism-based
[9] = test system: Rattus norvegicus; test: Antinociceptive activity in CFA induced thermal hypersensitivity Sprague-Dawley rat model assessed as increase in paw withdrawal latency at 100 mg/kg, po after 1 hr; format: functional, organism-based
[10] = target: Vascular endothelial growth factor receptor 2 (Homo sapiens) (UniProt P35968); test: Inhibition of recombinant human N-terminal GST-tagged VEGF-R2 C-terminal (G443 to G796) expressed in Sf9 insect cells at 20 nM using phosphatidylserine as substrate incubated for 60 mins in presence of [33P]-ATP by scintillation counting method
[11] = target: Calcium/calmodulin-dependent protein kinase type II subunit delta (Homo sapiens) (UniProt Q13557); test: Inhibition of CAMK2D (unknown origin) at 20 nM using calmodulin as substrate incubated for 60 mins in presence of [33P]-ATP by scintillation counting method
[12] = Cmax in Sprague-Dawley rat at 5 mg/kg, po; format: ADME, organism-based; parameters: dose 5 mg/kg, route oral; details: in vivo
[13] = target: Interleukin-1 receptor-associated kinase 4 (Homo sapiens) (UniProt Q9NWZ3); test: Inhibition of recombinant human IRAK4 C-terminal (A104 to S460) expressed in Sf9 insect cells at 20 nM using phosphatidylserine as substrate incubated for 60 mins in presence of [33P]-ATP by scintillation counting method
[14] = target: Casein kinase II subunit alpha (Homo sapiens) (UniProt P68400); test: Inhibition of recombinant human full length N-terminal GST and C-terminal His6-tagged CK2-alpha (M1 to Q391) expressed in Sf9 insect cells at 20 nM using phosphatidylserine as substrate incubated for 60 mins in presence of [33P]-ATP by scintillation counting method
[15] = target: MAP kinase-activated protein kinase 2 (Homo sapiens) (UniProt P49137); test: Inhibition of recombinant human full length N-terminal GST/His6-tagged MAPKAPK2 (M1 to L370) expressed in Sf9 insect cells at 20 nM using phosphatidylserine as substrate incubated for 60 mins in presence of [33P]-ATP by scintillation counting method
[16] = target: Protein kinase C theta type (Homo sapiens) (UniProt Q04759); test: Inhibition of recombinant human full length N-terminal GST and C-terminal His6-tagged PKC-theta (M1 to S706) expressed in Sf9 insect cells at 20 nM using phosphatidylserine as substrate incubated for 60 mins in presence of [33P]-ATP by scintillation counting method
[17] = Ratio of drug level in brain to plasma of Sprague-Dawley rat at 2.5 mg/kg, ip; format: ADME, organism-based; details: read-out: BPR
[18] = target: Activin receptor type-1 (Homo sapiens) (UniProt Q04771); test: Inhibition of recombinant human N-terminal GST/His6-tagged ACVR1 C-terminal (A145 to C509) expressed in Sf9 insect cells at 20 nM using phosphatidylserine as substrate incubated for 60 mins in presence of [33P]-ATP by scintillation counting method
[19] = target: Proto-oncogene tyrosine-protein kinase Src (Homo sapiens) (UniProt P12931); test: Inhibition of recombinant human full length N-terminal GST and C-terminal His6-tagged SRC (M1 to L536) expressed in Sf9 insect cells at 20 nM using phosphatidylserine as substrate incubated for 60 mins in presence of [33P]-ATP by scintillation counting method
[20] = Toxicity in CFA induced Sprague-Dawley rat assessed as increase in weight gain at 100 mg/kg, po and measured up to 3 days; format: organism-based; details: in vivo, 72 h
[21] = target: Tyrosine-protein kinase JAK1 (Homo sapiens) (UniProt P23458); test: Inhibition of recombinant human N-terminal GST/His6-tagged JAK1 wt (L583 to K1154) expressed in Sf9 insect cells at 20 nM using phosphatidylserine as substrate incubated for 60 mins in presence of [33P]-ATP by scintillation counting method
[22] = test system: Rattus norvegicus; test: Antinociceptive activity in CFA induced thermal hypersensitivity Sprague-Dawley rat model assessed as increase in paw withdrawal latency at 0.8 mg/kg, po after 1 hr; format: functional, organism-based
[23] = test system: Rattus norvegicus; test: Unbound drug level in plasma of CFA induced Sprague-Dawley rat at 4 mg/kg, po after 1 hr; format: ADME, organism-based; details: in vivo
[24] = Apparent permeability from apical to basolateral side in MDCK cells at 50 umol/L at pH 7.4 incubated for 30 mins by LC-MS/MS analysis; format: ADME, cell-based, Canis lupus familiaris; details: dog
[25] = test system: Rattus norvegicus; test: Antinociceptive activity in CFA induced thermal hypersensitivity Sprague-Dawley rat model assessed as increase in paw withdrawal latency at 20 mg/kg, po after 1 hr; format: functional, organism-based
[26] = target: Serine/threonine-protein kinase D2 (Homo sapiens) (UniProt Q9BZL6); test: Inhibition of PRKD2 (unknown origin) at 20 nM using phosphatidylserine as substrate incubated for 60 mins in presence of [33P]-ATP by scintillation counting method
[27] = target: Tyrosine-protein kinase Lck (Homo sapiens) (UniProt P06239); test: Inhibition of recombinant human full length N-terminal GST/His6-tagged LCK (M1 to P509) expressed in Sf9 insect cells at 20 nM using phosphatidylserine as substrate incubated for 60 mins in presence of [33P]-ATP by scintillation counting method
[28] = target: Glycogen synthase kinase-3 beta (Homo sapiens) (UniProt P49841); test: Inhibition of recombinant human full length N-terminal GST/His6-tagged GSK3-beta (M1 to T420) expressed in Sf9 insect cells at 20 nM using phosphatidylserine as substrate incubated for 60 mins in presence of [33P]-ATP by scintillation counting method

Interleukin-1 receptor-associated kinase 4 (Homo sapiens), sequence (Q9NWZ3 whole entry): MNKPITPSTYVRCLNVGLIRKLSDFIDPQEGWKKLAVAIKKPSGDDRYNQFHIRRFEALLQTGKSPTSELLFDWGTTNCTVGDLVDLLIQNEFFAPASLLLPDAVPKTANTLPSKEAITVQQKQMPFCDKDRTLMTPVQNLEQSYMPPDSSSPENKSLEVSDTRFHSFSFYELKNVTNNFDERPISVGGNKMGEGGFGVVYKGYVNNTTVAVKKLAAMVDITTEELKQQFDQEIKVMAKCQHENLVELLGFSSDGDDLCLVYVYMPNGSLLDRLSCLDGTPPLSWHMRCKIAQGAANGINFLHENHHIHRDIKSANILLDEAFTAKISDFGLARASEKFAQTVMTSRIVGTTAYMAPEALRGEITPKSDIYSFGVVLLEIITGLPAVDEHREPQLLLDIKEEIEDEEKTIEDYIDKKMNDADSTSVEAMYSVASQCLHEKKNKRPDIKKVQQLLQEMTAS
Proto-oncogene tyrosine-protein kinase Src (Homo sapiens), sequence (P12931 2-536 limits assumed): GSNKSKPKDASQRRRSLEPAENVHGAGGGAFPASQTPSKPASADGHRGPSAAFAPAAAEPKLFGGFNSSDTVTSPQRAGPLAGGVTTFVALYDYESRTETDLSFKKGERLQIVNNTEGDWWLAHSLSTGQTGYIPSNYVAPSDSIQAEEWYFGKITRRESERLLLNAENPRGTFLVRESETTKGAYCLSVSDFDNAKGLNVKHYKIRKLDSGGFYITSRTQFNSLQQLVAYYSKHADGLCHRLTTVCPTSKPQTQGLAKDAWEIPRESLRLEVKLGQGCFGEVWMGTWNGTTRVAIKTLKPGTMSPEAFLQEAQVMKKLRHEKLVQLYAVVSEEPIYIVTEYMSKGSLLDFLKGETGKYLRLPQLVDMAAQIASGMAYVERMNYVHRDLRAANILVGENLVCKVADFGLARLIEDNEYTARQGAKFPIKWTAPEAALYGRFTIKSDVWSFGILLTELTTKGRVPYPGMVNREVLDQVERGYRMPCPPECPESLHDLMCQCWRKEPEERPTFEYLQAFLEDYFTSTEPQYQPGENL
BDNF/NT-3 growth factors receptor, sequence (Q16620 whole entry): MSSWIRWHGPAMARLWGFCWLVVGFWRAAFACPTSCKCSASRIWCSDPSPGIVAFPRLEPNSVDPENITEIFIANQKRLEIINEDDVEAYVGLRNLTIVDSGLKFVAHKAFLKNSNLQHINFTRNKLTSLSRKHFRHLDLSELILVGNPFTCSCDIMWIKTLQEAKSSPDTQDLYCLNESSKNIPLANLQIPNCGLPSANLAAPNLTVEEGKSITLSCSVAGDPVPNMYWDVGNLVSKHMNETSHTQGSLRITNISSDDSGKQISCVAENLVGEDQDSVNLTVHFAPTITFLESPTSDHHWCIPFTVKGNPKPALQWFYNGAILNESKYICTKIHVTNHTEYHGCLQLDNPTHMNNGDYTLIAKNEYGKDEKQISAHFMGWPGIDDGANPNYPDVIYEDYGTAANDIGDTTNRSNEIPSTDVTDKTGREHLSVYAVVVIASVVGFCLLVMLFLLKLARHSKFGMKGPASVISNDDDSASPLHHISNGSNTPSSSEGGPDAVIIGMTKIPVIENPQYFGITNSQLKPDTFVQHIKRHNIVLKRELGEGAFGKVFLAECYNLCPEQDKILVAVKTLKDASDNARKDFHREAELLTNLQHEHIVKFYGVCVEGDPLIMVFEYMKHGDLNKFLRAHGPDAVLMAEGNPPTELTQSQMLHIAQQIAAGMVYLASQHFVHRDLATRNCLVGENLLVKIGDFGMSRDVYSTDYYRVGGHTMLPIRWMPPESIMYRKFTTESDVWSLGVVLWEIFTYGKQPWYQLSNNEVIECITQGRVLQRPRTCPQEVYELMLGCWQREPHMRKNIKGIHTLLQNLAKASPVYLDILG
Protein kinase C theta type (Homo sapiens), sequence (Q04759 whole entry, looked up): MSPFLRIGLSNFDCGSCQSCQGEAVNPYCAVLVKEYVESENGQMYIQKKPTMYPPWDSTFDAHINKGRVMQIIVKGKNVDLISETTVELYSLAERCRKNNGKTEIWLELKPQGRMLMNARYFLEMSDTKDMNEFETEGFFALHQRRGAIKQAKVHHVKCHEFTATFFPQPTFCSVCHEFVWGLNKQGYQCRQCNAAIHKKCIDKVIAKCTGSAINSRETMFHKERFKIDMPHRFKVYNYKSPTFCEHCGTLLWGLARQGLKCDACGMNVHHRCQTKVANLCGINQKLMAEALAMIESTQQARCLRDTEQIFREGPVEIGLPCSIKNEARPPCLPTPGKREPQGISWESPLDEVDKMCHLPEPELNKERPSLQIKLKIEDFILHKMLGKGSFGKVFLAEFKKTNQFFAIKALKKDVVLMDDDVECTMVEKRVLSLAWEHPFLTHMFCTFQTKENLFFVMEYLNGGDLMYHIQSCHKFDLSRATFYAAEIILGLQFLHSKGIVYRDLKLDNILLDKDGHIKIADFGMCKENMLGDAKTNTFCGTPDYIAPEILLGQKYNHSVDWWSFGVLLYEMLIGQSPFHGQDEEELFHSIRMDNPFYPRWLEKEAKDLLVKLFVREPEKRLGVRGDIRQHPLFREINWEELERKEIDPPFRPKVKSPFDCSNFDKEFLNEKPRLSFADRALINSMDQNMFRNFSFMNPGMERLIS
Tyrosine-protein kinase Lck (Homo sapiens), sequence (P06239 2-509 limits assumed): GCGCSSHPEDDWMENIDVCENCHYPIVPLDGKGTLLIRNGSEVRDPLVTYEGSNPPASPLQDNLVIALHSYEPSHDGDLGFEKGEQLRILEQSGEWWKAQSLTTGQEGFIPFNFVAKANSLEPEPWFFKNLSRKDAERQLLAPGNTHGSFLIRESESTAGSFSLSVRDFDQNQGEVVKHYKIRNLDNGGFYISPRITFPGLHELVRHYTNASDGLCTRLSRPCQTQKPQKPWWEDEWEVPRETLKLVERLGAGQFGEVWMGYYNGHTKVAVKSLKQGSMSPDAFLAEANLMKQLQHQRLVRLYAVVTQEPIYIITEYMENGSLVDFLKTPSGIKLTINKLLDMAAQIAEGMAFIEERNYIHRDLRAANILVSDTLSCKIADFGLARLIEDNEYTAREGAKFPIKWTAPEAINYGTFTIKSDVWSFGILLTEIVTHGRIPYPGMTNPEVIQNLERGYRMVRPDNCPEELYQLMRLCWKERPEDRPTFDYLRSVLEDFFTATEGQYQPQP
Activin receptor type-1 (Homo sapiens), sequence (Q04771 whole entry): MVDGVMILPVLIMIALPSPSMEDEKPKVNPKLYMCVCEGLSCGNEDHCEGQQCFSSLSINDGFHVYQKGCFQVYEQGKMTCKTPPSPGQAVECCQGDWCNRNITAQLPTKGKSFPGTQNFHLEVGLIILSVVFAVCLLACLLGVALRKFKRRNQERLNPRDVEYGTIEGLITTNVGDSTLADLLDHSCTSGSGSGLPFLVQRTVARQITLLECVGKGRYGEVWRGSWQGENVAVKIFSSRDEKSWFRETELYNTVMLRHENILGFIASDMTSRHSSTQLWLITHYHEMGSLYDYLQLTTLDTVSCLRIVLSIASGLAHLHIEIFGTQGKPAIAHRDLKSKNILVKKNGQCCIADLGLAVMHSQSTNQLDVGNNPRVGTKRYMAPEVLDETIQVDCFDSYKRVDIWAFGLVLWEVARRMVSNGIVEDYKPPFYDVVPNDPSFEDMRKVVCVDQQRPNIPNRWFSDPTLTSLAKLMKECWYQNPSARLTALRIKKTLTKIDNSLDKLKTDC
RAC-alpha serine/threonine-protein kinase (Homo sapiens), sequence (P31749 whole entry): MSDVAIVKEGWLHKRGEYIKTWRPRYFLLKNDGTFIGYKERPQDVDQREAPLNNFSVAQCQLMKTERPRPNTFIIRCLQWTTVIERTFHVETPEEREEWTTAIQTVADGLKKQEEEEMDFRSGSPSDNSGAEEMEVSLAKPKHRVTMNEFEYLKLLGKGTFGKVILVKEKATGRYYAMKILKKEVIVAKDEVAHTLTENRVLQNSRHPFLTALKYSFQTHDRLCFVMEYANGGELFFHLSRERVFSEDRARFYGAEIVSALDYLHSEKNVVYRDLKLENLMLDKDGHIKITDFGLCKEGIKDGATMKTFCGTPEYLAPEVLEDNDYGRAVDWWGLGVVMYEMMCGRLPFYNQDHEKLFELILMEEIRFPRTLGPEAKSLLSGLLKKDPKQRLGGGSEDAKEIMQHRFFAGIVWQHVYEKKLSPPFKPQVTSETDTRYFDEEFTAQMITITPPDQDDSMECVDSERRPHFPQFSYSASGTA
Ribosomal protein S6 kinase alpha-5 (Homo sapiens), sequence (O75582 whole entry, looked up): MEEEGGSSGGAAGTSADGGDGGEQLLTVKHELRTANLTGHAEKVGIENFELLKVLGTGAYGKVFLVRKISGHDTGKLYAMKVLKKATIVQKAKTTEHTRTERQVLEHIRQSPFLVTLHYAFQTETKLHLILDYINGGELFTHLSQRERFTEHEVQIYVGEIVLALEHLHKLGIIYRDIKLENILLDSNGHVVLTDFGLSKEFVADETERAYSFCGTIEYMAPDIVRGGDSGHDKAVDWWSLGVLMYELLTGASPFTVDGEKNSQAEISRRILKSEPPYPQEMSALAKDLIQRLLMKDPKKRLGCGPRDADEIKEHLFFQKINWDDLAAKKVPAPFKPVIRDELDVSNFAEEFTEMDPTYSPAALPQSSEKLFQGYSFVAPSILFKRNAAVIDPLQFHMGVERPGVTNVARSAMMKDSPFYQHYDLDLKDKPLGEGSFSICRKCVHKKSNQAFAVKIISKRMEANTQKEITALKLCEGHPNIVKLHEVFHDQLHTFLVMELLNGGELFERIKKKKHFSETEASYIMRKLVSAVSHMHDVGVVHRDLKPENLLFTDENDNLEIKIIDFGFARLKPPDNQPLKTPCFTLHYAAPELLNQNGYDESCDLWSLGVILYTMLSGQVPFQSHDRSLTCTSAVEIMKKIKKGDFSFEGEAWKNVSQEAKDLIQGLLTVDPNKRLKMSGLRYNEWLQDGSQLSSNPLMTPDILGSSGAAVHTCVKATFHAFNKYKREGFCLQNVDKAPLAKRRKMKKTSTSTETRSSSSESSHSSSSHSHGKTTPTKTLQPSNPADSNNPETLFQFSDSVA

inhibition [1]: 6%
IC50 [2]: 0.2 nM
solubility [3]: 141 µM (≈ 56.2 µg/mL)
fraction unbound [4]: 0.134
Cp(f) [5]: 0.0047 µM
inhibition [6]: 5%
inhibition [7]: 5%
inhibition [10]: 4%
inhibition [11]: 0%
Cmax [12]: 0.161 µM
inhibition [13]: -8%
inhibition [14]: 7%
inhibition [15]: 19%
inhibition [16]: -2%
Kp [17]: 0.03
inhibition [18]: -2%
inhibition [19]: 2%
inhibition [21]: -5%
Cp(f) [23]: 0.0149 µM
Papp A→B at 0.5 h, 50 µM [24]: 152 nm/s
inhibition [26]: -8%
inhibition [27]: -6%
inhibition [28]: 11%
SMILES: Cn1cc(-c2n[nH]c3ccc(NCc4cc(F)ccc4S(C)(=O)=O)cc23)cn1
Activity [8]: Active
Activity [9]: Active
Activity [20]: Toxic
Activity [22]: inactive
Activity [25]: Active

— ChEMBL document CHEMBL4346729, “The discovery of novel 3-aryl-indazole derivatives as peripherally restricted pan-Trk inhibitors for the treatment of pain” (Bioorg Med Chem Lett, 2019)
